Assay: in vitro
Conditions: for Concentration (μM) of analyte PEA, 0 min / Concentration (μM) of analyte PEA, 10 min / Concentration (μM) of analyte PEA, 20 min / Concentration (μM) of analyte PEA, 30 min / Concentration (μM) of analyte PEA, 60 min / % Remaining of Initial (n = 1), 0 min / % Remaining of Initial (n = 1), 10 min / % Remaining of Initial (n = 1), 20 min / % Remaining of Initial (n = 1), 30 min / % Remaining of Initial (n = 1), 60 min / Measured concentration of PEA (analyte) / % Remaining of Initial: 1 μM
Procedure: Reaction mixture, minus cofactors, was prepared as described below. Test article was added into the reaction mixture at a final concentration of 1 μM. […] An aliquot of the reaction mixture (without cofactor cocktail) was equilibrated in a shaking water bath at 37° C. for 3 minutes. The reaction was initiated by the addition of cofactor cocktail (see below), and the mixture was then incubated in a shaking water bath at 37° C. Aliquots (100 μL) were withdrawn 0, 10, 20, 30 and 60 minutes. Test article samples were immediately combined with 300 μL of ice-cold acetonitrile containing 1% formic acid. Control samples were immediately combined with 400 μL of ice-cold 50/50 acetonitrile (ACN)/dH2O containing 0.1% formic acid and internal standard to terminate the reaction. Samples were then mixed and centrifuged to precipitate proteins. Calibration standards were prepared in matched matrix. Samples and standards were assayed by LC-MS/MS using electrospray ionization for both the dosed prodrug and the expected drug (PEA). Analytical conditions are outlined in Appendix 8-1. Test article concentration at each time point was compared to the test article concentration at time 0 to determine the percent remaining at each time point. Half-lives were calculated using GraphPad software, fitting to a single-phase exponential decay equation.
Reaction mixture, minus cofactors, was prepared as described below. Test article was added into the reaction mixture at a final concentration of 1 μM. […] An aliquot of the reaction mixture (without cofactor cocktail) was equilibrated in a shaking water bath at 37° C. for 5 minutes. Reaction was initiated by the addition of cofactor cocktail (see below), and mixture was then incubated in a shaking water bath at 37° C. Aliquots (100 μL) were withdrawn at 0, 10, 20, 30, and 60 minutes. Test article samples were immediately combined with 300 μL of ice-cold acetonitrile containing 1% formic acid. Control samples were immediately combined with 400 μL of ice-cold 50/50 acetonitrile (ACN)/dH2O containing 0.1% formic acid and internal standard to terminate the reaction. Samples were then mixed and centrifuged to precipitate proteins. Calibration standards were prepared in matched matrix. Samples and standards were assayed by LC-MS/MS using electrospray ionization for both dosed prodrug and expected drug (PEA). Analytical conditions are outlined in Appendix 10-1. Test article concentration at each time point was compared to test article concentration at time 0 to determine the percent remaining at each time point. Half-lives were calculated using GraphPad software, fitting to a single-phase exponential decay equation.
The reaction mixture, minus cofactors, was prepared as described below. Test article was added into the reaction mixture at a final concentration of 1 μM. […] An aliquot of the reaction mixture (without cofactor cocktail) was equilibrated in a shaking water bath at 37° C. for 3 minutes. Reaction was initiated by the addition of cofactor cocktail (see below), and the mixture was then incubated in a shaking water bath at 37° C. Aliquots (100 μL) were withdrawn at 0, 10, 20, 30, and 60 minutes. Test article samples were immediately combined with 300 μL of ice-cold acetonitrile containing 1% formic acid. Control samples were immediately combined with 400 μL of ice-cold 50/50 acetonitrile (ACN)/dH2O containing 0.1% formic acid and internal standard to terminate the reaction. Samples were then mixed and centrifuged to precipitate proteins. Calibration standards were prepared in matched matrix. Samples and standards were assayed by LC-MS/MS using electrospray ionization for both dosed prodrug and expected drug (PEA). Analytical conditions are outlined in Appendix 13-1. Test article concentration at each time point was compared to the test article concentration at time 0 to determine the percent remaining at each time point.

[1] = male, Sprague-Dawley, rat, 0 min
[2] = male, Sprague-Dawley, rat, 10 min
[3] = male, Sprague-Dawley, rat, 20 min
[4] = male, Sprague-Dawley, rat, 30 min
[5] = male, Sprague-Dawley, rat, 60 min
[6] = male, Sprague-Dawley, rat, s9, 0 h
[7] = male, Sprague-Dawley, rat, s9, 10 min
[8] = male, Sprague-Dawley, rat, s9, 20 min
[9] = male, Sprague-Dawley, rat, s9, 0.5 h
[10] = male, Sprague-Dawley, rat, s9, 1 h

In the case of `CC/C=C\C/C=C\C/C=C\C/C=C\C/C=C\CCCC(=O)OCCNC(=O)CCCCCCCCCCCCCCC` [Compound I-5], the “Concentration (μM) of analyte PEA, 0 min” value (both, human, 0 min) is reported as 0.024 µM, the “Concentration (μM) of analyte PEA, 10 min” value (“Concentration (μM) … 10 min” below) (both, human, 10 min) is reported as 0.036 µM and the “Concentration (μM) of analyte PEA, 20 min” value (“Concentration (μM) … 20 min” below) (both, human, 20 min) is reported as 0.036 µM. The “Concentration (μM) of analyte PEA, 30 min” value (“Concentration (μM) … 30 min” below) (both, human, 30 min) was 0.025 µM, the “Concentration (μM) of analyte PEA, 60 min” value (“Concentration (μM) … 60 min” below) (both, human, 60 min) was 0.018 µM and the “% Remaining of Initial (n = 1), 0 min” value (both, human, s9, 0 h) was 100%. The “% Remaining of Initial (n = 1), 10 min” value (both, human, s9, 10 min) was 80%, the “% Remaining of Initial (n = 1), 20 min” value (both, human, s9, 20 min) was 81% and the “% Remaining of Initial (n = 1), 30 min” value (both, human, s9, 0.5 h) was 70%. The “% Remaining of Initial (n = 1), 60 min” value (both, human, s9, 1 h) was 72%, the half-life at 1 μM (both, human, s9, Half-life (min)) was over 60 min and the “Concentration (μM) of analyte PEA, 0 min” value (male, Beagle, dog, 0 min) was 0.024 µM. For the same compound, the “Concentration (μM) … 10 min” value (male, Beagle, dog, 10 min) was 0.044 µM, the “Concentration (μM) … 20 min” value (male, Beagle, dog, 20 min) was 0.036 µM and the “Concentration (μM) … 30 min” value (male, Beagle, dog, 30 min) was 0.041 µM. For the same compound, the “Concentration (μM) … 60 min” value (male, Beagle, dog, 60 min) was 0.038 µM, the “% Remaining of Initial (n = 1), 0 min” value (male, Beagle, dog, s9, 0 h) was 100% and the “% Remaining of Initial (n = 1), 10 min” value (male, Beagle, dog, s9, 10 min) was 72%. For the same compound, the “% Remaining of Initial (n = 1), 20 min” value (male, Beagle, dog, s9, 20 min) was 79%, the “% Remaining of Initial (n = 1), 30 min” value (male, Beagle, dog, s9, 0.5 h) was 74% and the “% Remaining of Initial (n = 1), 60 min” value (male, Beagle, dog, s9, 1 h) was 85%. For the same compound, the half-life at 1 μM (male, Beagle, dog, s9, Half-life (min)) was over 60 min, the “Concentration (μM) of analyte PEA, 0 min” value (male, CD-1, mouse, 0 min) was 0.046 µM and the “Concentration (μM) … 10 min” value (male, CD-1, mouse, 10 min) was 0.061 µM. For the same compound, the “Concentration (μM) … 20 min” value (male, CD-1, mouse, 20 min) was 0.043 µM, the “Concentration (μM) … 30 min” value (male, CD-1, mouse, 30 min) was 0.029 µM and the “Concentration (μM) … 60 min” value (male, CD-1, mouse, 60 min) was 0.018 µM. The “% Remaining of Initial (n = 1), 0 min” value (male, CD-1, mouse, s9, 0 h) was 100%, the “% Remaining of Initial (n = 1), 10 min” value (male, CD-1, mouse, s9, 10 min) was 66% and the “% Remaining of Initial (n = 1), 20 min” value (male, CD-1, mouse, s9, 20 min) was 50%. The “% Remaining of Initial (n = 1), 30 min” value (male, CD-1, mouse, s9, 0.5 h) was 59%, the “% Remaining of Initial (n = 1), 60 min” value (male, CD-1, mouse, s9, 1 h) was 50% and the “Concentration (μM) of analyte PEA, 0 min” value [1] was 0.020 µM. For the same compound, the “Concentration (μM) … 10 min” value [2] was 0.025 µM, the “Concentration (μM) … 20 min” value [3] was 0.037 µM and the “Concentration (μM) … 30 min” value [4] was 0.026 µM. The “Concentration (μM) … 60 min” value [5] was 0.013 µM, the “% Remaining of Initial (n = 1), 0 min” value [6] was 100% and the “% Remaining of Initial (n = 1), 10 min” value [7] was 98%. The “% Remaining of Initial (n = 1), 20 min” value [8] was 82%, the “% Remaining of Initial (n = 1), 30 min” value [9] was 75% and the “% Remaining of Initial (n = 1), 60 min” value [10] was 67%. It also gave a half-life at 1 μM (male, Sprague-Dawley, rat, s9, Half-life (min)) of over 60 min and a half-life at 1 μM (male, Sprague-Dawley, rat, s9, Half-life (min), calculated half-life in parentheses) of 91 min.

With `CCCCCCCCCCCCCCCC(=O)NCCOC(=O)CCC(=O)OC(COC(=O)CCC)COC(=O)CCC` [Compound I-16] the “Measured concentration of PEA (analyte)” value (both, human, 0 min) was 0.10 µM, the “Measured concentration of PEA (analyte)” value (both, human, 10 min) was 0.46 µM and the “Measured concentration of PEA (analyte)” value (both, human, 20 min) was 0.42 µM. The “Measured concentration of PEA (analyte)” value (both, human, 30 min) was 0.39 µM, the “Measured concentration of PEA (analyte)” value (both, human, 60 min) was 0.27 µM and the “% Remaining of Initial” value (both, human, s9, 0 h) was 100%. For the same compound, the “% Remaining of Initial” value (both, human, s9, 10 min) was 4.9%, the “% Remaining of Initial” value (both, human, s9, 20 min) was 2.1% and the “% Remaining of Initial” value (both, human, s9, 0.5 h) was under 1.0%. The “% Remaining of Initial” value (both, human, s9, 1 h) was under 1.0%, the half-life at 1 μM (both, human, s9, Half-life) was under 10 min and the “Measured concentration of PEA (analyte)” value (male, Beagle, dog, 0 min) was 0.053 µM. For the same compound, the “Measured concentration of PEA (analyte)” value (male, Beagle, dog, 10 min) was 0.26 µM, the “Measured concentration of PEA (analyte)” value (male, Beagle, dog, 20 min) was 0.33 µM and the “Measured concentration of PEA (analyte)” value (male, Beagle, dog, 30 min) was 0.29 µM. For the same compound, the “Measured concentration of PEA (analyte)” value (male, Beagle, dog, 60 min) was 0.23 µM, the “% Remaining of Initial” value (male, Beagle, dog, s9, 0 h) was 100% and the “% Remaining of Initial” value (male, Beagle, dog, s9, 10 min) was 2.1%. For the same compound, the “% Remaining of Initial” value (male, Beagle, dog, s9, 20 min) was under 1.0%, the “% Remaining of Initial” value (male, Beagle, dog, s9, 0.5 h) was under 1.0% and the “% Remaining of Initial” value (male, Beagle, dog, s9, 1 h) was under 1.0%. The half-life at 1 μM (male, Beagle, dog, s9, Half-life) was under 10 min, the “Measured concentration of PEA (analyte)” value (male, CD-1, mouse, 0 min) was 0.33 µM and the “Measured concentration of PEA (analyte)” value (male, CD-1, mouse, 10 min) was 0.78 µM. For the same compound, the “Measured concentration of PEA (analyte)” value (male, CD-1, mouse, 20 min) was 0.68 µM, the “Measured concentration of PEA (analyte)” value (male, CD-1, mouse, 30 min) was 0.59 µM and the “Measured concentration of PEA (analyte)” value (male, CD-1, mouse, 60 min) was 0.43 µM. For the same compound, the “% Remaining of Initial” value (male, CD-1, mouse, s9, 0 h) was 100%, the “% Remaining of Initial” value (male, CD-1, mouse, s9, 10 min) was 3.7% and the “% Remaining of Initial” value (male, CD-1, mouse, s9, 20 min) was under 1.0%. For the same compound, the “% Remaining of Initial” value (male, CD-1, mouse, s9, 0.5 h) was under 1.0%, the “% Remaining of Initial” value (male, CD-1, mouse, s9, 1 h) was under 1.0% and the half-life at 1 μM (male, CD-1, mouse, s9, Half-life) was under 10 min. For the same compound, the “Measured concentration of PEA (analyte)” value [1] was 0.050 µM, the “Measured concentration of PEA (analyte)” value [2] was 0.13 µM and the “Measured concentration of PEA (analyte)” value [3] was 0.13 µM. The “Measured concentration of PEA (analyte)” value [4] was 0.058 µM, the “Measured concentration of PEA (analyte)” value [5] was 0.020 µM and the “% Remaining of Initial” value [6] was 100%. The “% Remaining of Initial” value [7] was 3.0%, the “% Remaining of Initial” value [8] was under 1.0% and the “% Remaining of Initial” value [9] was under 1.0%. The “% Remaining of Initial” value [10] was under 1.0%, the half-life at 1 μM (male, Sprague-Dawley, rat, s9, Half-life) was under 10 min and the half-life at 1 μM (male, Sprague-Dawley, rat, s9, Half-life, calculated value in parentheses) was 2 min.

Source: patent US11547681B2, “N-acylethanolamide derivatives and uses thereof” (ELIEM THERAPEUTICS, INC., priority 2016, dated 2023)
